The values below come from US10485885B2, “Compositions and methods for delivery of agents” (ModernaTX, Inc., priority 2015, dated 2019).

Structures are written as SMILES.

For the data set, the system named is circulating B cells and monocytes. Put plainly: B cell, B1a cell and monocyte frequencies and activation in non-human primate PBMCs. The data set is classed as in vivo, cynomolgus monkeys. On the procedure: The percentage of monocyte activation was also measured at pre-bleed, day 1, day 22, day 43, and day 44 of the study.
FIGS. 84A and 84B show the EPO expression after the first injection and after the fifth injection. In particular, the concentration of EPO (ng/mL) was measured at 2 hours, 6 hours, 12 hours, 24 hours, and 48 hours following the first injection and the fifth injection. FIGS. 85A-85E show the EPO expression for each of the co-medications on day 1 and day 29 of the study. In particular, the concentration of EPO (ng/mL) was measured on day 1 and day 29 at 2 hours, 6 hours, 12 hours, 24 hours, and 48 hours for each co-medication group. Immune cell populations were also measured. Specifically, the percentage of B cells (FIG. 86A), B1a cells (FIG. 86B), and monocytes (FIG. 86C) in PBMCs was measured for each co-medication group at day-7, 24 hours post first injection, and 24 hours post fifth injection. B cell activation is reflected in FIG. 87. The percentage of activated B cells in circulating B cells was measured for each co-medication group at day-7, 24 hours post first injection, and 24 hours post fifth injection.
Monocyte activation is reflected in FIG. 88. The percentage of activated monocytes/macrophages in circulating PBMCs was measured for each co-medication group at day-7, 24 hours post first injection, and 24 hours post fifth injection. […] An increase in the percentage of activated monocytes/macrophages post injection was only observed in the fingolimod co-medication group.

Where [1] appears, read: co-medication with hEPO mRNA MC3-LNP, 24 hours post first injection.

As to `COc1cc(Nc2ncc(F)c(Nc3ccc4c(n3)N(COP(=O)(O)O)C(=O)C(C)(C)O4)n2)cc(OC)c1OC` [fostamatinib], the “Percentage of activated B cells in circulating B cells” value (from here on “Percentage of activated B cells”) under setting [1] is listed as “normal B cell activation similar to that of the control group”.

Turning to `CCCCCCCCc1ccc(CCC(N)(CO)CO)cc1` [fingolimod], for the setting “co-medication”, the “Frequencies of monocytes in PBMCs” value was “significant decrease” and the “Percentage of activated monocytes/macrophages post injection” value is recorded as “increase”. For the same compound, the “Percentage of activated B cells” value under setting [1] is recorded as “normal B cell activation similar to that of the control group”.

Regarding `CC[C@H](Nc1ncnc2[nH]cnc12)c1nc2cccc(F)c2c(=O)n1-c1ccccc1` [idelalisib], for the setting “cynomolgus monkey, in vivo”, the “B cell frequencies in PBMCs” value is “slightly reduced” and the “Percentage of activated B cells” value is recorded as “B cell activation was not observed”.
